In patent publication US6664368B1, “Inhibition of nuclear import by backbone cyclic peptide analogs” (priority 1997, dated 2003):
Numbered stars: 1 amine (or outer) side, 2 acyl side, 3 side chain; on linkers, the order of the positions; unused ones are H or OH. Bridge positions count the residues as written; N and C are the ends. Square brackets hold non-standard residues; d marks the D form. Ends that are not written are not given here. Peptide text beside a SMILES is read from it. N(6-aminohexyl)Gly = O=C(CN(CCCCCCN[*:3])[*:1])[*:2]; X1 = CC(C)[C@H](NC(=O)CCCCC(=O)[*:1])C(=O)[*:2]

Key:
trypsin = experiment: Stability to proteolytic cleavage by trypsin; type: in vitro ADME; settings: trypsin solution; room temperature, TEA buffer pH 7.8, HPLC peak area; read-out: half life (t½) of digestion by trypsin (converted)
Protocol: Method: A mixture containing 0.05 ml of trypsin solution (8% w/v in HCl 0.001M), 0.5 ml TEA buffer pH=7.8 (Geiger, R.; Fritz, H. In Methods of enzymatic analysis; H. U. Bergmeyer, et al. Eds.; Weinheim: Verlag-chemie: 1984; pp 119-129) and 0.2 ml of peptide 22 (BCvir) solution in water (initial concentration of 1.25 mg/ml) was injected to HPLC (C3 column, gradient of 5-60% acetonitrile:TDW containing 0.1% TFA, 35 minutes) immediately after addition of the peptide (t=0). The mixture was incubated at room temperature and samples were injected every 70 min. […] The peak area of the peptide at each time interval was compared to the peak area of the peptide in t=0, as a measure of the relative peptide concentration.

Hut 78 cells = settings: 0.1, 1, 10 and 100 μg/ml; 1, 2, 4 and 7 days post seeding
Protocol: Method: Hut 78 cells (0.5×10^6/ml) were cultured without or with 0.1, 1, 10 and 100 μg/ml of BCvir. The number of living cells was determined by staining with trypan blue 1, 2, 4 and 7 days post seeding,.

[1] = tested on: nuclear import of SV40-NLS-BSA (biotinylated BSA-NLS); experiment: Quantitative ELISA-based nuclear import assay, inhibition of NLS-BSA (SV40-NLS-BSA) uptake in permeabilized Colo-205 cells; type: cell-based; design: key to Nuclear uptake of SV40-BSA: +: most of the cells in the field (more than 70-80%) did show nuclear uptake (presence of fluorescent dye within the nuclei); −: most of the cells in the field (more than 70-80%) did show nuclear uptake (their cytoplasm, and not the nuclei, were fluorescently labeled); settings: for Nuclear uptake of SV40-BSA: in the presence of the free peptide, ELISA-based assay; for Nuclear entry (%) of SV40-NLS-BSA: WGA 0.6 mg/ml or Tat-NLS peptide 1 mg/ml preincubated 30 minutes, entry with cytosolic factors = 100%
Protocol: (§1) Nuclear import was quantitatively determined essentially as described before (Melchior, et al. (1993) J. Cell. Biol. 123 (6). 1649-1659), except that a suspension of Colo-205 cells was used instead of a suspension of HeLa cells and 500 nM biotinylated BSA-NLS were used as a transport substrate. The immunomodule strips were coated with rabbit anti-BSA serum instead of using the IgG fraction. The results given are an average of triplicate determination whose standard deviation never exceeded ±20%.
Nuclear uptake was determined by the ELISA-based assay, except where indicated. IC50 values were determined by using peptides and transport substrates in molar ratios between 500:1 and 0.005:1 respectively. Cysteine residues in all the peptides are not part of the original sequence and were added in order to conjugate them to BSA.
Inhibition of nuclear uptake was estimated by addition of the above listed peptides to a nuclear transport system using SV40-NLS-BSA as a transport substrate.
(§2) Nuclear transport using SV40-NLS-BSA and Tat-NLS-BSA as transport substrates was performed employing the in-vitro ELISA system.

[2] = tested on: nuclear import of Tat-NLS-BSA; experiment: In-vitro ELISA nuclear transport with Tat-NLS-BSA as transport substrate; type: cell-based, human; settings: WGA 0.6 mg/ml or Tat-NLS peptide 1 mg/ml preincubated 30 minutes; entry with cytosolic factors = 100%
Protocol: as §1
The entry of the conjugates into nuclei of permeabilized colo cells was estimated as described above. ATP was depleted, WGA (0.6 mg/ml) and Tat-NLS peptide (1 mg/ml) were preincubated for 30 minutes at room temperature with the permeabilized cells before adding the BSA conjugates.
as §2

[3] = tested on: nuclear import of VprN/VprC-BSA conjugate in permeabilized cells; experiment: Nuclear import of Vpr peptide-BSA conjugates in permeabilized cells; type: cell-based
From the text: Viral protein r (Vpr), an HIV-1 auxiliary protein which mediates nuclear import of the viral preintegration complex (PIC), contains two regions, N- and C-terminal, which have been proposed to function as a nuclear localization signal (NLS). We have synthesized peptides corresponding to both regions (designated as VprN and VprC), conjugated them to bovine serum albumin (BSA), and tested their ability to mediate nuclear import in permeabilized cells.

[4] = tested on: translocation of FL-NLS-BSA into nuclei of digitonin-permeabilized HeLa cells; experiment: Nuclear import estimated by fluorescence microscopy; type: cell-based; design: key: +: most of the cells in the field (more than 70-80%) did show nuclear uptake (presence of fluorescent dye within the nuclei); −: most of the cells in the field (more than 70-80%) did show nuclear uptake (their cytoplasm, and not the nuclei, were fluorescently labeled); settings: in the presence of the free peptide; based on fluorescent microscopy observations (footnote 3)
From the text: HeLa cells were cultivated on 10 mm coverslips to subconfluent density and then permeabilized with digitonin as described before (Broder, et al. ibid). Linear peptides bearing the NLS signal of the SV40 large T-antigen were covalently attached to fluorescently labeled (with FITC) BSA molecules (Goldfarb, et al. (1986) Nature 322, 641-644) and translocation of the resulting fluorescently labeled-NLS-BSA molecules (FL-NLS-BSA) into nuclei of digitonin-permeabilized HeLa cells was followed by fluorescent microscopy observations, as described (Broder, et al. ibid).

[5] = SV40-NLS-BSA substrate, peptide:substrate molar ratios between 500:1 and 0.005:1
[6] = purified peptides, inhibition of nuclear import of NLS-BSA

| Molecule | Nuclear uptake of SV40-BSA [1] | IC50 [1, 5] [µM] | other results |
| --- | --- | --- | --- |
| CC(C)C[C@H](NC(=O)[C@H](CCCCN)NC(=O)CN1CCCCCCNC(=O)[C@H](C(C)C)NC(=O)CCCCC(=O)N[C@@H](CCCCN)C(=O)N[C@@H](CCCCN)C(=O)N[C@@H](CCCCN)C1=O)C(N)=O [BCvir] (KKK[N(6-aminohexyl)Gly]KL-NH2; linker N-4 via X1) |  |  | half-life (trypsin): 7 h; effect on growth rate of uninfected cells (Hut 78 cells): did not affect the growth rate |
| NCCCC[C@H](NC(=O)CN1CCCCCCNC(=O)CNC(=O)CCCCC(=O)N[C@@H](CCCCN)C(=O)N[C@@H](CCCCN)C(=O)N[C@@H](CCCCN)C1=O)C(N)=O [peptide 19.4] |  |  | half-life (trypsin): 9 h |
| CGPKNKRKV [SV40 mutant] | + |  |  |
| CVKRKKKPG (Human Immunodeficiency Virus (HIV-1)) [SV40 reverse] | + |  |  |
| C^7KRSMGGWSAIRERMRR^22 [Nef NLS] | − | 11 |  |
| C^35RQARRNRRRRWRERQRQ^51 (N-terminal cysteine; UniProt P04618 35-51, looked up, fragment) [Rev NLS] | − | 347 |  |
| C^48GRKKRRQRRRAHQN^61 (N-terminal cysteine; UniProt P04608 48-61, looked up, fragment) [Tat NLS] | − | 147 | Nuclear entry (%) of Tat-NLS-BSA [2]: 15.4%; Nuclear entry (%) of SV40-NLS-BSA [1]: 52% |
| C^88EWRKKRYSTOV^98 [Vif 88-98 K91L] (CEWRLKRYSTQV; not fully specified; printed as C^88EWRKKRYSTOV^98 [Vif 88-98 K91L]) | + |  |  |
| C^88EWRKKRYSTOV^98 [Vif 88-98] (CEWRKKRYSTQV; not fully specified; printed as C^88EWRKKRYSTOV^98 [Vif 88-98]; UniProt P69723 88-98, looked up, fragment) | − | 62 |  |
| GKKKYKLKHC [HIV-MA NLS] |  |  | IC50 [1, 6]: 12 µM |
| PKKKRKVC [SV40 large T-antigen NLS] | − | 0.02 | IC50 [1, 6]: 0.001 µM; inhibition of nuclear import of the VprN conjugate [3]: not inhibited |
| ^30YVSGKARGWFYRHHY^44 [Vif 30-44] |  |  | Nuclear uptake of SV40-BSA [4]: + |
| ^41RHHYESPHPRISSEV^55 [Vif 41-55] |  |  | Nuclear uptake of SV40-BSA [4]: + |
| ^51ISSEVHIPLGDARLV^65 [Vif 51-65] |  |  | Nuclear uptake of SV40-BSA [4]: + |
| ^78DWHLGQGV^85 (Human Immunodeficiency Virus (HIV-1)) [Vif 78-85] |  |  | Nuclear uptake of SV40-BSA [4]: + |
| ^85VSIEWRKK^92 (UniProt P69723 85-92, looked up, fragment) [Vif 85-92] | − | 253 |  |
| ^88EWRKKRYS^95 (Human Immunodeficiency Virus (HIV-1)) [Vif 88-95] | − |  |  |
| wheat germ agglutinin [WGA] |  |  | Nuclear entry (%) of Tat-NLS-BSA [2]: 53.6%; Nuclear entry (%) of SV40-NLS-BSA [1]: 49.8%; inhibition of nuclear import of the VprN conjugate [3]: inhibited |
